# How the values were obtained:
# cortical cell cultures = test: In vitro assay on ischemia (cortical cell cultures, potassium cyanide and 2-deoxyglucose); type: cell-based; conditions: 1 h, read-out: EC50 (neuroprotective effect)
# Procedure: In Vitro Assay on Ischemia
# To examine the in vitro effect of the compounds of formula I on ischemia, cortical cell cultures were treated with various compounds of formula I during an ischemic insult utilizing potassium cyanide and 2-deoxyglucose, and for one hour thereafter (for experimental details, see Vomov et al., J. Neurochem., Vol. 65, No. 4, pp. 1681-1691 (1995)).
# BB/W diabetic rats [1] = test: Nerve conduction velocity in BB/W diabetic rats; type: in vivo; conditions: 10 mg/kg daily, vs diabetic vehicle controls, from 8 weeks to six months, FIG. 18
# Excerpt: Male BB/W rats (BRI, Mass) spontaneously develop a cell mediated autoimmune destruction of pancreatic B cells, resulting in onset of insulin-dependent (Type I) diabetes (Awata and Guberski et al., Endocrinology 1995 December; 136(12):5731-5). […] This renders them valuable for experimental trials of new compounds for future treatments of this major disorder. In the present study, Compound D and Compound A were examined for their ability to alter the progression of diabetic neuropathy. The rats received daily injection of Compound D or Compound A (10 mg/kg i.p.) or vehicle, starting at the onset of diabetes (hyperglycemia) and up to 6 months thereafter. Another group of non-diabetic rats also receiving vehicle were tested. All animals were continuously monitored for body weight, urine volume, blood sugar and glycated haemoglobin. In the first month of the study, all animals were tested for thermal nociception in a Hargreaves apparatus, weekly. After the first month this was done biweekly and then monthly. […]
# Nerve conduction velocity was also measured every two weeks through the first eight weeks of treatment and every month thereafter through to the six months of treatment. […]
# [2] = system: STZ-induced diabetic rats; test: In vivo assay on neuropathic pain, STZ-diabetic rats (Hargreaves thermal nociception); parameters: species or system Sprague-Dawley rats; conditions: 10 mg/kg i.p. daily, FIGS. 13A and 13B
# Procedure: In Vivo Assay of NAALADase Inhibitors on Neuropathic Pain
# Male Sprague-Dawley rats (200-225 g) were rendered diabetic by intravenous administration of streptozotocin (“STZ”, 70 mg/kg in phosphate buffered saline). Diabetic animals were divided into five groups: one group receiving Compound A (10 mg/kg or 1 mg/kg), Compound D (10 mg/kg or 1 mg/kg) or vehicle. Another group of animals (non-STZ treated) served as non-diabetic controls. Drug/vehicle treatment was started in diabetic animals 45 days post-STZ administration. STZ-induced diabetic rats were tested for sensitivity to a heat source as soon as blood glucose levels rose to 320 mg/dl or above (30 days post STZ). The rats were then acclimated to the Hargreaves apparatus and thermal nociception was monitored using an infrared heat source directed into the dorsal surface of the hindpaw, and the time taken for the animal to remove its paw noted to the nearest 0.1 seconds (for detailed method, see Hargreaves et al., J. Biol. Chem. (1988) 263(36):19392-7). The intensity of the beam source was adjusted such that the mean latency for control animals (non-STZ treated) was approximately 10 seconds. Each animal was tested 8 times and the mean difference score (between mean non-diabetic control latency and mean diabetic latency) are graphically presented in FIGS. 13A and 13B.
# BB/W diabetic rats [3] = test: Withdrawal latency in BB/W diabetic rats (Hargreaves); type: in vivo; conditions: 10 mg/kg i.p. daily, vs diabetic vehicle-treated rats, from 4 weeks through six months, FIG. 17
# Excerpt: Male BB/W rats (BRI, Mass) spontaneously develop a cell mediated autoimmune destruction of pancreatic B cells, resulting in onset of insulin-dependent (Type I) diabetes (Awata and Guberski et al., Endocrinology 1995 December; 136(12):5731-5). […] This renders them valuable for experimental trials of new compounds for future treatments of this major disorder. In the present study, Compound D and Compound A were examined for their ability to alter the progression of diabetic neuropathy. The rats received daily injection of Compound D or Compound A (10 mg/kg i.p.) or vehicle, starting at the onset of diabetes (hyperglycemia) and up to 6 months thereafter. Another group of non-diabetic rats also receiving vehicle were tested. All animals were continuously monitored for body weight, urine volume, blood sugar and glycated haemoglobin. In the first month of the study, all animals were tested for thermal nociception in a Hargreaves apparatus, weekly. After the first month this was done biweekly and then monthly. The testing consists of directing an infrared heat source onto the dorsal surface of the rat hindpaw and noting the time taken for the animal to remove its paw (for detailed method, see Hargreaves et al., J. Biol. Chem. 1988 Dec. 25; 263(36):19392-7). Each animal was tested 8 times and the mean withdrawal latency noted.
# STZ-diabetic rats = test: In vivo assay on diabetic neuropathy: motor and sensory nerve conduction velocity in STZ-diabetic rats; conditions: vs diabetic controls; for sensory nerve conduction velocity / motor nerve conduction velocity: 10 mg/kg daily; for sensory nerve conduction velocity: significant after 8 weeks (Compound A) or 12 weeks (Compound D); for motor nerve conduction velocity: significant after 12 weeks
# Procedure: In Vivo Assay of NAALADase Inhibitors on Diabetic Neuropathy
# Motor and sensory nerve conduction velocity was also measured in STZ-diabetic animals after 4, 8 and 12 weeks of treatment. For detailed method, see De Koning et al., Peptides 1987 May-Jun. 1987; 8(3):415-22. Briefly, stimulating needle electrodes were inserted close to the sciatic and tibial nerves with recording electrodes being placed subcutaneously over the distal foot muscles, in anesthetized rats.
# [4] = system: chronic constrictive injury-induced rats; test: Neuropathic pain progression, CCI model (sciatic nerve ligation, Hargreaves); type: in vivo; conditions: 50 mg/kg i.p. daily starting 10 days post surgery, vs vehicle, significant from 11 days of treatment, FIG. 14
# Procedure: In Vivo Assay of NAALADase Inhibitors on Neuropathic Pain Progression CCI Model
# Sciatic nerve ligation, consisting of 4 ligatures tied loosely around the sciatic nerve at 1 mm intervals proximal to the nerve trifurcation, was performed on rats. […] The rats were habituated to a Hargreaves apparatus. An infrared heat source was directed onto the dorsal surface of each rat's hindpaws and the time taken for the rat to withdraw its paws was noted. The difference in scores between the latency of the response for the paw on the operated side versus the paw on the unoperated control side was determined.
# Animals received Compound C (50 mg/kg i.p. daily) or vehicle, starting 10 days post surgery. […] Normal (unoperated) rats had approximately equal latencies for both paws. This effect was significant starting at 11 days of drug treatment and persisted through to the end of the study (for 21 days of daily dosing).
# TGF-β2 = test: Effect on TGF-β2 in in vitro ischemia model; type: cell-based; conditions: ischemic cell cultures, FIG. 2
# Procedure: (§1) Effect of NAALADase Inhibition on TGF-β in In Vitro Ischemia Model
# (§2) A NAALADase inhibitor, Compound C, was added to ischemia cell cultures to determine its effect on TGF-β levels during stroke. The experimental data, set forth
# TGF-β1 [5] = test: Effect on TGF-β1 in in vitro ischemia model; type: cell-based; conditions: ischemic cell cultures, FIG. 1
# Procedure: as §1, §2
# ischemic cell cultures = test: Neuroprotective effect in ischemic cell cultures with neutralizing antibodies; type: cell-based; conditions: in vitro ischemia model
# Procedure: TGF-β neutralizing antibodies were then added to the ischemic cell cultures.
# TGF-β1 [6] = test: TGF-β1 levels in rats subjected to MCAO (microdialysis); type: in vivo; conditions: FIG. 6
# [7] = system: rats subjected to middle cerebral artery occlusion; test: Neuroprotective effect in MCAO rats with TGF-β neutralizing antibodies; type: in vivo; conditions: FIG. 5
# Excerpt: The effect of TGF-β neutralizing antibodies on the neuroprotective effect of Compound C was also studied in rats following MCAO.
# One of ordinary skill in the art can appreciate that the regulation of TGF-β's by NAALADase inhibitors may have implications not only in stroke, but also in other diseases, disorders and conditions including, without limitation, neurological diseases, psychiatric diseases, demyelinating diseases, prostate cancer, inflammation, and angiogenesis.
compound,measurement,setting,value
"O=C(O)c1ccc(OCCCSSCCCOc2ccc(C(=O)O)cc2C(=O)O)c(C(=O)O)c1 [Compound 19, 4-[3-[[3-(2,4-dicarboxyphenoxy)propyl]-dithio]propoxy]-1,3-benzenedicarboxylic acid]",EC50,cortical cell cultures,2.49 µM
"O=C(O)c1ccc(CCS)c(C(=O)O)c1 [Compound 22, 4-(2-mercaptoethyl)-1,3-benzenedicarboxylic acid]",EC50,cortical cell cultures,0.06 µM
"O=C(O)c1cc(OCCCS)cc(C(=O)O)c1 [Compound 36, 5-(3-mercaptopropoxy)-1,3-benzenedicarboxylic acid]",EC50,cortical cell cultures,1.24 µM
"O=C(O)c1cc(C(=O)O)cc(C(=O)NO)c1 [Compound 39, 5-[(hydroxyamino)-carbonyl]-1,3-benzenedicarboxylic acid]",EC50,cortical cell cultures,0.473 µM
"O=C(O)c1cc(CS)cc(C(=O)O)c1 [Compound 41, 5-mercaptomethyl-1,3-benzenedicarboxylic acid]",EC50,cortical cell cultures,0.172 µM
"O=C(O)CCC(CP(=O)(O)Cc1c(F)c(F)c(F)c(F)c1F)C(=O)O (centres unmarked) [Compound A, 2-[[(2,3,4,5,6-pentafluorobenzyl)hydroxyphosphinyl]methyl]pentanedioic acid]",nerve conduction velocity,BB/W diabetic rats [1],significantly less severe nerve conduction deficits
same,hyperalgesic response (withdrawal latency difference score),[2],completely reversed
same,withdrawal latency,BB/W diabetic rats [3],longer withdrawal latencies
same,sensory nerve conduction velocity,STZ-diabetic rats,significant improvement
same,motor nerve conduction velocity,STZ-diabetic rats,significant improvement
"O=C(O)CCC(CP(=O)(O)O)C(=O)O (centres unmarked) [Compound C, 2-(phosphonomethyl)pentanedioic acid]",difference scores between the two paws (withdrawal latency),[4],dramatically normalized
same,TGF-β2 concentrations,TGF-β2,increased concentrations
same,TGF-β1 concentrations,TGF-β1 [5],increased concentrations
same,neuroprotective effect with TGF-β neutralizing antibodies added,ischemic cell cultures; FIG. 3,blocked
same,neuroprotective effect with FGF antibody added,ischemic cell cultures; FIG. 4,did not block
same,TGF-β1 levels during occlusion and reperfusion,TGF-β1 [6],significant rise
same,neuroprotective effect in vivo with TGF-β neutralizing antibodies,[7],significantly attenuated
"O=C(O)CCC(CCS)C(=O)O (centres unmarked) [Compound D, 2-(2-sulfanylethyl)pentanedioic acid]",nerve conduction velocity,BB/W diabetic rats [1],significantly less severe nerve conduction deficits
same,hyperalgesic response (withdrawal latency difference score),[2],completely reversed
same,withdrawal latency,BB/W diabetic rats [3],longer withdrawal latencies
same,motor and sensory nerve conduction velocities,STZ-diabetic rats; 1 mg/kg dose,increased
same,sensory nerve conduction velocity,STZ-diabetic rats,increased
same,motor nerve conduction velocity,STZ-diabetic rats,increased

# — patent publication US6852750B2, “Benzenedicarboxylic acid derivatives” (Guilford Pharmaceuticals, Inc., priority 2000, dated 2005)
